Data taken from patent publication US20110129504A1, “COMPOSITION FOR CONTROLLING LIPASE CATALYZED REACTIONS” (NESTEC S.A., priority 2007, published 2011).

Key:
Rhizomucor miehei lipase [1] = target: T1, Rhizomucor miehei lipase (Rhizomucor miehei, UniProt P19515); assay: Biphasic decane/buffer system: lipolytic hydrolysis of p-nitrophenylpalmitate; format: biochemical; conditions: monoglyceride 1.3 E-3 M in decane, p-nitrophenylpalmitate 2E-4M, phosphate buffer pH 5.5, 3,3 E-6 M lipase; 410 nm; vs reference without surfactant
T1 sequence (P19515 95-363): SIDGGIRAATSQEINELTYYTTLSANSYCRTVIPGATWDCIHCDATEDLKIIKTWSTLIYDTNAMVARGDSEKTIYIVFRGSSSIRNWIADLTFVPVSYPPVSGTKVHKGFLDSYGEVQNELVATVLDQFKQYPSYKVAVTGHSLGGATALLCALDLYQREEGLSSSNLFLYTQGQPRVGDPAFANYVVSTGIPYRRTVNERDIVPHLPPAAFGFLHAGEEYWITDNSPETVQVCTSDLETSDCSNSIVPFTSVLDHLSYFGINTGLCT
Procedure: (§1) A biphasic system was prepared in glass test tubes with the following composition: • Upper oil phase is composed of 7 ml decane in the absence (control) or presence of (1,3 E-3M) monoglyceride and 20 ul tricaprylin or p-nitrophenypalmitate (2E-4M) • Aqueous phase is composed of 2 ml phosphate buffer, pH 5.5 containing 3,3 E-6 M Rhizomucor miehei lipase. The caprylic acid generation in the presence and absence of monoglycerides (surfactant) is monitored by GC-FID. 100 ul of the upper oil phase are taken and added to 900 ul Chloroform before direct injection into the GC. The nitrophenol generation is followed by spectroscopic analysis at 410 nm of the aqueous phase. FIGS. 7 and 8 show the amount of caprylic acid formed after the lipolytic hydrolysis of the p-nitropheylpalmitate and tricaprylin in the presence of Sn1 (hydrolysable surfactants) or Sn2 (non-hydrolysable) monoglycerides. […] This is an indication that with the used monoglyceride concentration (the concentration was constant at 1.3 E-3 M) not enough surfactant is adsorbing to the water-oil interface, since the Sn2M20:4 is too lipohilic and partitions more into the bulk oil than to the interface.

Rhizomucor miehei lipase [2] = target: T1, Rhizomucor miehei lipase; assay: Biphasic decane/buffer system: lipolytic hydrolysis of tricaprylin; format: biochemical; conditions: monoglyceride 1,3 E-3M in decane, 20 ul tricaprylin, phosphate buffer pH 5.5, 3,3 E-6 M lipase; vs no surfactant; GC-FID
Procedure: as §1

lipase = assay: TIM gastro-intestinal model (TNO) digestion of Tricaprylin emulsion; format: biochemical
Procedure: 8 ml Tricaprylin containing 2.0 g Sn2-Monopalmitin (non-cleavable surfactant) was mixed with 200 ml phosphate buffer pH 5.5 and 20 mg/ml starch (emulsifier) using an Ultra Turrax for 2 minutes, and subsequent sonification for 10 minutes. The reference emulsion system contains the same amount of tricaprylin and starch, however, no Sn2-monopalmitin. Model digestion runs of the 2 samples were performed using a gastro-intestinal model system provided by TNO. Physiological conditions (e.g. temperature, enzyme type and load, bile salt concentration, pH) were predefined via the TIM programming system. The hydrolysis of Tricaprylin was followed by monitoring the caprylic acid release after passing the different gastro-intestinal compartments. […] The extraction of the generated fatty acids after passing the different compartments was performed by taking 100 ul of the reaction mixture, adding 900 ul chloroform together with 100 ul Chloridric acid 1M. The samples were vortexed and centrifuged at 5000 rpm for 10 min. 500 ul of the supernatant was taken and directly injected into a GC-FID. 3 samples were analysed for each reaction time at each gastro-intestinal compartment.
Additional experiments were performed where sn-2 monopalmitin was replaced Lysophosphotidilcholine (LysoPC). The effect of LysoPC on fat gastric digestion were studied.

[3] = Pendant drop interfacial tension at buffer/decane interface; format: physicochemical
Excerpt: The interfacial tension of pure Tricaprylin (free of any residues of polar lipids), should remain above 30 mN/m. Therefore, a more interfacial active molecule (like monocaprylin), has the capacity to exclude the triglyceride from the interface.

CCCCCCCC(=O)OCC(O)CO (centres unmarked) [Sn1 M8]
kinetics of nitrophenol formation from p-nitrophenylpalmitate (Rhizomucor miehei lipase [1]): quite similar to the observations made in the reference system

CCCCCCCCCCCC(=O)OCC(O)CO (centres unmarked) [Sn1 M12]
kinetics of nitrophenol formation from p-nitrophenylpalmitate (Rhizomucor miehei lipase [1]): quite similar to the observations made in the reference system

CCCCCCCCCCCCCCCC(=O)OCC(O)CO (centres unmarked) [Sn1-M16]
kinetics of nitrophenol formation from p-nitrophenylpalmitate (Rhizomucor miehei lipase [1]): quite similar to the observations made in the reference system

CCCCCCCC(=O)OC(CO)CO [Sn2-M8]
kinetics of nitrophenol formation from p-nitrophenylpalmitate (Rhizomucor miehei lipase [1]): significant reduction | kinetics of lipolytic caprylic acid formation from tricaprylin (Rhizomucor miehei lipase [2]): reduced

CCCCCCCCCCCC(=O)OC(CO)CO [Sn2-M12]
kinetics of nitrophenol formation from p-nitrophenylpalmitate (Rhizomucor miehei lipase [1]): significant reduction | kinetics of lipolytic caprylic acid formation from tricaprylin (Rhizomucor miehei lipase [2]): reduced

CCCCCCCCCCCCCCCC(=O)OC(CO)CO [Sn2-M16, Sn-2 Monopalmitin]
Caprylic acid (C8) detected after passing through the ileum and jejunum (lipase; 8 ml Tricaprylin containing 2.0 g surfactant, phosphate buffer pH 5.5, starch emulsifier, vs reference emulsion without surfactant, GC-FID, FIG. 2): almost no caprylic acid is detected | caprylic acid content in the lumen of the stomach, duodenum, jejunum and in the efflux (lipase; compared with the ileum/jejunum result (almost no caprylic acid), FIGS. 3, 4 and 5): A similar result is obtained | kinetics of nitrophenol formation from p-nitrophenylpalmitate (Rhizomucor miehei lipase [1]): significant reduction | kinetics of lipolytic caprylic acid formation from tricaprylin (Rhizomucor miehei lipase [2]): reduced

CCCCCCCCCCCCCCCCCCCC(=O)OC(CO)CO [monoarachidin, Sn-2 monoarachidin]
interfacial tension between the buffer and the decane solution ([3]; as a function of titrated (added) surfactant, FIG. 8): induces a decrease of the measured interfacial tension

CCCCCCCC(=O)OCC(O)CO (centres unmarked) [monocaprylin]
interfacial activity compared with caprylic acid (C8) and dicaprylin (DC8) ([3]; buffer/decane interface, FIG. 9): considerably more interfacially active

Lysophosphotidilcholine [LysoPC]
gastric lipolysis of triglycerides (lipase; sn-2 monopalmitin replaced by LysoPC, lumen of stomach, FIG. 3): considerable effect in decreasing gastric lipolysis
